Key:
Gal4-RORγ-LBD = biological target: T1, Gal4-RORγ-LBD (Homo sapiens, UniProt P51449); assay: Gal4-RORγ Luciferase Reporter Assay in HEK-293T Cells; type: cell-based; conditions: HEK-293 cells
T1 construct: expressed in transfected cells; host or cells: HEK-293 cells (pcDNA3.1neo plasmid)
T1 sequence (P51449 269-508 limits assumed): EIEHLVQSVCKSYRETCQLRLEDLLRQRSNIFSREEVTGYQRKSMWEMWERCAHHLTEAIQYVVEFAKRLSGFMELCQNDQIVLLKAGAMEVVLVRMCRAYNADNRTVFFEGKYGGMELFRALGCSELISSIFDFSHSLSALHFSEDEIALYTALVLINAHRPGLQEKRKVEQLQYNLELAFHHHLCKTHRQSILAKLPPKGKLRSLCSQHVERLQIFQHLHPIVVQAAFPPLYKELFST
Method in brief: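 HEK-293 cells were transiently co-transfected with Gal4-RORγ-LBD and pGL4.31 Gal4-luciferase, with ursolic acid added at 2 μM final. Compounds were incubated overnight at 37° C. in 0.2% DMSO and luminescence read with One-Glo. Max Response is the upper plateau of a 4-parameter logistic fit, with signal lacking ursolic acid or compound set to 100.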

RORγ-LBD = biological target: T2, RORγ-LBD (Homo sapiens, UniProt P51449); assay: RORγ-Ligand Binding Domain (LBD) TR-FRET Assay; type: biochemical;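 on TR-FRET Assay Max Response: 665/615 nm ratio relative to signal without ursolic acid or compound set at 100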
T2 construct: made in house; host or cells: SF9 cells (baculovirus)
T2 sequence (P51449 269-508 limits assumed): T1 sequence (P51449 269-508 limits assumed)
Method in brief: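 His-tagged RORγ-LBD from SF9 baculovirus lysate, ~3 nM final, in 50 mM Tris pH 7.0, 50 mM KCl, 1 mM EDTA, 0.1 mM DTT, 0.01% BSA. Biotinylated SRC1 LXXLL peptide at 200 nM final with 2 μM ursolic acid; TR-FRET read-out, 1% DMSO final.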

[1] = luciferase reporter, with 2 μM ursolic acid

EC50 (Gal4-RORγ-LBD; 2 μM ursolic acid)	EC50 (RORγ-LBD)	EC50 (Gal4-RORγ-LBD; [1])	SMILES	Gal4-RORγ Assay Max Response (Gal4-RORγ-LBD; 2 μM ursolic acid)	TR-FRET Assay Max Response (RORγ-LBD)	Gal4-RORγ Assay Max Response (Gal4-RORγ-LBD; [1])
< 500 nM	< 500 nM		CC(C)(C[C@H]1CN(S(=O)(=O)c2cccc(C(F)(F)F)c2)c2cc(-c3cccc(C(F)F)c3)ccc2O1)C(=O)O [Compound 32AL, (S)-3-(6-(3-(difluoromethyl)-phenyl)-4-((3-(trifluoromethyl)-phenyl)sulfonyl)-3,4-dihydro-2H-benzo[b][1,4]oxazin-2-yl)-2,2-dimethylpropanoic acid]	** (The symbol “**” indicates a value in the range of greater than 90 to 150)	** (The symbol “**” indicates a value in the range of greater than 90 to 150)	
	< 500 nM	500 to 5000 nM	O=C(O)CC[C@H]1CN(S(=O)(=O)c2cccc(C(F)(F)F)c2)c2cc(-c3ccc(F)c(Cl)c3)ccc2O1 [Compound 2J, (S)-3-(6-(3-chloro-4-fluorophenyl)-4-((3-(trifluoromethyl)phenyl)-sulfonyl)-3,4-dihydro-2H-benzo[b][1,4]oxazin-2-yl)propanoic acid]		** (The symbol “**” indicates a value in the range of greater than 90 to 150)	* (The symbol “*” indicates a value in the range of 25 to 90)
	500 to 5000 nM	500 to 5000 nM	Cc1cnc(-c2ccc3c(c2)N(S(=O)(=O)c2cccc(C(F)(F)F)c2)C[C@H](CCC(=O)O)O3)o1 [Compound 26, (S)-3-(6-(5-methyloxazol-2-yl)-4-((3-(trifluoromethyl)phenyl)sulfonyl)-3,4-dihydro-2H-benzo[b][1,4]oxazin-2-yl)propanoic acid]		*** (The symbol “***” indicates a value in the range of greater than 150 to 200)	* (The symbol “*” indicates a value in the range of 25 to 90)
	< 500 nM	< 500 nM	O=C(O)C1CCN(C(=O)CC[C@H]2CN(S(=O)(=O)c3cccc(C(F)(F)F)c3)c3cc(-c4cccc(C(F)(F)F)n4)ccc3O2)CC1 [Compound 23F, (S)-1-(3-(4-((3-(trifluoromethyl)-phenyl)sulfonyl)-6-(6-(trifluoro-methyl)pyridin-2-yl)-3,4-dihydro-2H-benzo[b][1,4]oxazin-2-yl)propanoyl)piperidine-4-carboxylic acid]		**** (The symbol “****” indicates a value greater than 200)	** (The symbol “**” indicates a value in the range of greater than 90 to 150)
	< 500 nM	< 500 nM	CC(C)(O)CC[C@H]1CN(S(=O)(=O)c2cccc(C(F)(F)F)c2)c2cc(-c3cc(F)ccc3F)ccc2O1 [Compound 10, (S)-4-(6-(2,5-difluorophenyl)-4-((3-(trifluoromethyl)phenyl)sulfonyl)-3,4-dihydro-2H-benzo[b][1,4]oxazin-2-yl)-2-methylbutan-2-ol]		**** (The symbol “****” indicates a value greater than 200)	** (The symbol “**” indicates a value in the range of greater than 90 to 150)
< 500 nM	< 500 nM		O=C(O)C1(C[C@H]2CN(S(=O)(=O)c3cccc(C(F)(F)F)c3)c3cc(-c4cccc(Cl)c4)ccc3O2)CCOCC1 [Compound 78A, (S)-4-((6-(3-chlorophenyl)-4-((3-(trifluoromethyl)phenyl)sulfonyl)-3,4-dihydro-2H-benzo[b][1,4]-oxazin-2-yl)methyl)tetrahydro-2H-pyran-4-carboxylic acid]	** (The symbol “**” indicates a value in the range of greater than 90 to 150)	** (The symbol “**” indicates a value in the range of greater than 90 to 150)	
	< 500 nM	< 500 nM	O=C(NC[C@H]1CN(S(=O)(=O)c2cccc(C(F)(F)F)c2)c2cc(-c3cc(F)ccc3F)ccc2O1)c1cocn1 [Compound 30AJ, (S)-N-((6-(2,5-difluorophenyl)-4-((3-(trifluoromethyl)phenyl)-sulfonyl)-3,4-dihydro-2H-benzo[b][1,4]oxazin-2-yl)methyl)oxazole-4-carboxamide]		**** (The symbol “****” indicates a value greater than 200)	** (The symbol “**” indicates a value in the range of greater than 90 to 150)
	< 500 nM	< 500 nM	O=S(=O)(c1cccc(C(F)(F)F)c1)N1C[C@H](CCCO)Oc2ccc(-c3cccc(Cl)c3)cc21 [Compound 34D, (S)-3-(6-(3-chlorophenyl)-4-((3-(trifluoromethyl)phenyl)sulfonyl)-3,4-dihydro-2H-benzo[b][1,4]-oxazin-2-yl)propan-1-ol]		**** (The symbol “****” indicates a value greater than 200)	** (The symbol “**” indicates a value in the range of greater than 90 to 150)
	500 to 5000 nM	500 to 5000 nM	Cc1nn(C)c(C)c1-c1ccc2c(c1)N(S(=O)(=O)c1cccc(C(F)(F)F)c1)C[C@H](CCC(=O)O)O2 [Compound 4U, (S)-3-(4-((3-(trifluoromethyl)-phenyl)sulfonyl)-6-(1,3,5-trimethyl-1H-pyrazol-4-yl)-3,4-dihydro-2H-benzo[b][1,4]-oxazin-2-yl)propanoic acid]		* (The symbol “*” indicates a value in the range of 25 to 90)	* (The symbol “*” indicates a value in the range of 25 to 90)
	< 500 nM	< 500 nM	CC(C)c1cccc(S(=O)(=O)N2C[C@H](CCc3n[nH]c(=O)o3)Oc3ccc(-c4cc(F)ccc4F)cc32)c1 [Compound 28D, (S)-5-(2-(6-(2,5-difluorophenyl)-4-((3-isopropylphenyl)sulfonyl)-3,4-dihydro-2H-benzo[b][1,4]-oxazin-2-yl)ethyl)-1,3,4-oxadiazol-2(3H)-one]		**** (The symbol “****” indicates a value greater than 200)	** (The symbol “**” indicates a value in the range of greater than 90 to 150)
	< 500 nM	< 500 nM	Cc1ccc(F)cc1-c1ccc2c(c1)N(S(=O)(=O)c1cccc(C(F)(F)F)c1)C[C@H](CCC(=O)O)O2 [Compound 2BA, (S)-3-(6-(5-fluoro-2-methylphenyl)-4-((3-(trifluoromethyl)phenyl)sulfonyl)-3,4-dihydro-2H-benzo[b][1,4]oxazin-2-yl)propanoic acid]		**** (The symbol “****” indicates a value greater than 200)	** (The symbol “**” indicates a value in the range of greater than 90 to 150)
< 500 nM	< 500 nM		COc1cc(S(=O)(=O)N2C[C@H](CCC(C)(C)C(=O)O)Oc3ccc(-c4cc(F)cc(OC)c4F)cc32)ccc1F [Compound 32S, (S)-4-(6-(2,5-difluoro-3-methoxyphenyl)-4-((4-fluoro-3-methoxyphenyl)sulfonyl)-3,4-dihydro-2H-benzo[b][1,4]oxazin-2-yl)-2,2-dimethylbutanoic acid]	** (The symbol “**” indicates a value in the range of greater than 90 to 150)	*** (The symbol “***” indicates a value in the range of greater than 150 to 200)	
	< 500 nM	< 500 nM	CC(C)c1cccc(S(=O)(=O)N2C[C@H](CCc3n[nH]c(=O)o3)Oc3ccc(-c4cccc(N(C)C)n4)cc32)c1 [Compound 28F, (S)-5-(2-(6-(6-(dimethylamino)-pyridin-2-yl)-4-((3-isopropyl-phenyl)sulfonyl)-3,4-dihydro-2H-benzo[b][1,4]oxazin-2-yl)ethyl)-1,3,4-oxadiazol-2(3H)-one]		**** (The symbol “****” indicates a value greater than 200)	** (The symbol “**” indicates a value in the range of greater than 90 to 150)
500 to 5000 nM	< 500 nM		CC(=O)NC(C)(C)C[C@@H]1CN(S(=O)(=O)c2cccc(C(F)(F)F)c2)c2cc(-c3cc(F)ccc3F)ccc2O1 [Compound 30DC, (R)-N-(1-(6-(2,5-difluoro-phenyl)-4-((3-(trifluoromethyl)-phenyl)sulfonyl)-3,4-dihydro-2H-benzo[b][1,4]oxazin-2-yl)-2-methylpropan-2-yl)acetamide]	* (The symbol “*” indicates a value in the range of 25 to 90)	*** (The symbol “***” indicates a value in the range of greater than 150 to 200)	
< 500 nM	< 500 nM		CC(C)(C[C@H]1CN(S(=O)(=O)c2cccc(C(F)(F)F)c2)c2cc(-c3cc(F)cc(Cl)c3F)ccc2O1)C(=O)O [Compound 32AI, (S)-3-(6-(3-chloro-2,5-difluoro-phenyl)-4-((3-(trifluoromethyl)-phenyl)sulfonyl)-3,4-dihydro-2H-benzo[b][1,4]oxazin-2-yl)-2,2-dimethylpropanoic acid]	** (The symbol “**” indicates a value in the range of greater than 90 to 150)	*** (The symbol “***” indicates a value in the range of greater than 150 to 200)	

— patent US10611740B2, “Aryl dihydro-2H-benzo[b][1,4]oxazine sulfonamide and related compounds for use as agonists of RORγ and the treatment of disease” (Lycera Corporation, priority 2015, dated 2020)
